We go through 27 compounds from US9434688B2, “Indole derivatives as selective androgen receptor modulators (SARMS)” (Janssen Pharmaceutica, NV, priority 2004, dated 2016).

Structures are written as SMILES. Values joined by “and” are separate entries in the source; they are usually repeats but may differ in a detail not shown here. Equal values may be shown once.

The target of the first test is T1, androgen receptor (Rattus norvegicus, UniProt P15207).
T1 sequence (P15207 1-902): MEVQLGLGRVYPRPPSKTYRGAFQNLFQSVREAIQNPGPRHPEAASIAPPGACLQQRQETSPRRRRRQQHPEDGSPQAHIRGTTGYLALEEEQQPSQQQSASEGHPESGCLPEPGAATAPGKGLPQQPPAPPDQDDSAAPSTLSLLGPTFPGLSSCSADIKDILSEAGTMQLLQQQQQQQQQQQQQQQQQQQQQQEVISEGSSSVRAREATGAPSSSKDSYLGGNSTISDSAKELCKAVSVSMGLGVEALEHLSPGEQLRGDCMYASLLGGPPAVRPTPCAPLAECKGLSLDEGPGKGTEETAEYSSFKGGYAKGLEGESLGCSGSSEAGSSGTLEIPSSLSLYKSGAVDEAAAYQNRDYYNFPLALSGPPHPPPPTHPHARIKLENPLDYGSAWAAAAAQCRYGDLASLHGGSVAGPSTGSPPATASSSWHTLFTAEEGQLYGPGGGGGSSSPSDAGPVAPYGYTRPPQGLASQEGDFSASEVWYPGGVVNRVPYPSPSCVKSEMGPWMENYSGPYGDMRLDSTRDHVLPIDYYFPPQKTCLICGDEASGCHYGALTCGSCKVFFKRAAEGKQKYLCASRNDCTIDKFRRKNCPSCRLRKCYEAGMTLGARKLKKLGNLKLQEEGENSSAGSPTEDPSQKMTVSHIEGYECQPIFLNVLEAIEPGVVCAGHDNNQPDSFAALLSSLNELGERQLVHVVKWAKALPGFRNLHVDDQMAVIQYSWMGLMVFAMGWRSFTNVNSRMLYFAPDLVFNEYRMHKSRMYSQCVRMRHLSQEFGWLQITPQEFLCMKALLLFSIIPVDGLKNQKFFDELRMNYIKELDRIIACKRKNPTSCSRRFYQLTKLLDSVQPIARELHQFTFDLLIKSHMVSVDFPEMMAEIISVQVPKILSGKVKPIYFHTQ
As to the kind of experiment: L929 Androgen Receptor Functional Assay, Adenovirus Transduction. As to conditions: L929 agonist testing; @ 8000 nM. In kind it is cell-based. Details: expressed in transfected cells; host or cells: L929 cells transduced with adenovirus AdEasy+rAR. As for the experimental part:
L929 cells were plated in 96-well plates at 20,000 cells per well, in DMEM/F12 (GIBCO) containing 10% (v/v) charcoal-treated fetal bovine serum (Hyclone) and lacking phenol red. The plates were then incubated overnight at 37° C. in 5% (v/v) humidified CO2.
Test compound dilutions were prepared in 100% (v/v) DMSO, if necessary. Each dilution was made to 1250× the final desired assay concentration.
First, 2 mL of DMEM/F12 lacking phenol red was pipetted into the wells of a 2-mL 96-well assay block. Next, 4 μL of the 1250× test compound dilutions were pipetted into each well of the assay block. The mixtures within the well were then carefully mixed by pipette.
In a 15 mL or 50 mL sterile centrifuge tube, a 2.5 nM (2.5×) dilution of R1881 (methyl-trienolone) in DMEM/F12 lacking phenol red was prepared.
In a second 15 mL or 50 mL centrifuge tube a solution containing an equal volume of DMEM to the first and an equal volume of 100% (v/v) DMSO to the volume of R1881 used in the first tube was prepared.
In a 15 mL or 50 mL sterile centrifuge tube, a dilution in DMEM/F12 of the adenovirus AdEasy+rAR at an moi of 1:500 per well was prepared.
The medium was removed from the 96-well plates by inversion and dried, inverted, very briefly. As soon as possible after medium removal, 40 μL of the diluted unlabeled test compound was added to each well, in duplicate. To each well designated for antagonist testing was added 40 μL of the 2.5 nM R1881 dilution to the wells for antagonist testing. To each well designated for agonist testing was added 40 μL of the DMSO dilution. Then 20 μL of the diluted adenovirus were added to all wells. The plates were incubated for 48 hours at 37° C. in 5% (v/v) humidified CO2.
To each well was added 100 μL of Steady-Glo luciferase assay substrate (Promega) and the plates were placed on a rotary shaker for 1 min. The plates were then incubated at room temperature in the dark for one hour. The contents of each well were then transferred to a white microtiter plate (Packard) and read on a Luminoskan Ascent (Thermo Lab Systems).
L929 AR percent activity was determined by testing dilutions of the test compound using a concentration of 3000 nM unless otherwise noted. L929 percent inhibition was determined by testing dilutions of the test compound using a concentration of 3000 nM. […] Luciferase activity per well were measured and EC50s and IC50s determined by linear regression.
`CCSCC(C)(O)c1cc2cc(C#N)c(C(F)(F)F)cc2[nH]1` (single isomer, unassigned) [Compound #217, 2-(2-Ethylsulfanyl-1-hydroxy-1-methyl-ethyl)-6-trifluoromethyl-1H-indole-5-carbonitrile]: the “% Activity” value is 0 @ 8000 nM %.

Still in this test, the particulars now being: L929 agonist testing; concentration of 3000 nM.
On to `CC[S+]([O-])CC(O)c1cc2cc([N+](=O)[O-])c(C(F)(F)F)cc2[nH]1` (mixture of isomers) [compound 180], for which the “% Activity” value came out at 2%. On to `CSCCC(C)(O)c1cc2cc(Cl)c(C(F)(F)F)cc2[nH]1` (racemic) [compound 51], for which the “% Activity” value stood at 2%. On the same count and under the same terms, then `CN(C)c1ccc(S(=O)(=O)CC(C)(O)c2cc3cc(Cl)c(C(F)(F)F)cc3[nH]2)cc1` (racemic) [compound 126], with −5%; and `CC(O)(CS(=O)(=O)Cc1ccccc1)c1cc2cc([N+](=O)[O-])c(C(F)(F)F)cc2[nH]1` (racemic) [compound 162], with 2%. Still for that read-out and setting: then `CCCSCC(C)(O)c1cc2cc(Cl)c(C(F)(F)F)cc2[nH]1` (racemic) [compound 196], with 13%.

Regarding `CC(O)(CSCc1ccco1)c1cc2cc([N+](=O)[O-])c(C(F)(F)F)cc2[nH]1` (racemic) [compound 198], the “% Activity” value is 7%.

Turning to `CC(O)(CS(=O)(=O)CC(F)(F)F)c1cc2cc([N+](=O)[O-])c(C(F)(F)F)cc2[nH]1` (racemic) [compound 208], the “% Activity” value is listed as 1%. Same read-out and setting: the value for `CC(O)(CSCC(F)(F)F)c1cc2cc(C#N)c(C(F)(F)F)cc2[nH]1` (racemic) [compound 211] was −1%; that for `CCS(=O)(=O)CC(C)(O)c1cc2cc(C#N)c(C(F)(F)F)cc2n1C` (racemic) [compound 240] was 0%. As for `CC(O)(Sc1ccc(N)cc1)c1cc2cc(Cl)c(C(F)(F)F)cc2[nH]1` (racemic) [compound 265], the “% Activity” value is recorded as −1%.

Consider `CC(O)(Sc1ccc(N)cc1)c1cc2cc([N+](=O)[O-])c(C(F)(F)F)cc2[nH]1` (racemic) [compound 266], for which the “% Activity” value is −4%.

On to `CC(C)SC(C)(CO)c1cc2cc([N+](=O)[O-])c(C(F)(F)F)cc2[nH]1` (racemic) [compound 268], for which the “% Activity” value is given as 9%.

`CSCCC(C)(O)c1cc2cc([N+](=O)[O-])c(C(F)(F)F)cc2[nH]1` (centres unmarked) [compound 47]: the “% Activity” value came to 2%.

For `COc1ccc(S(=O)(=O)CC(C)(O)c2cc3cc(Cl)c(C(F)(F)F)cc3n2S(C)(=O)=O)cc1` (centres unmarked) [compound 128], the “% Activity” value is −4%. On the same count and under the same terms, the value for `CC(O)(CSc1ccc(C(=O)O)cc1)c1cc2cc(Cl)c(C(F)(F)F)cc2n1S(C)(=O)=O` (centres unmarked) [compound 132] was −5%; that for `CC(O)(CSc1ccc(C(=O)O)cc1)c1cc2cc(Cl)c(C(F)(F)F)cc2[nH]1` (centres unmarked) [compound 133] was −4%; that for `CC(O)(CS(C)(=O)=O)c1cc2cc(Cl)c(C(F)(F)F)cc2n1S(C)(=O)=O` (centres unmarked) [compound 137] was 0%. Turning to `CC(C)CSCC(C)(O)c1cc2cc([N+](=O)[O-])c(C(F)(F)F)cc2[nH]1` (centres unmarked) [compound 170], the “% Activity” value is listed as 2%.

The same test, now with this note: L929 agonist testing; concentration of 3000 nM; 3 µM.
For `CSC(C)(O)c1cc2cc([N+](=O)[O-])c(C(F)(F)F)cc2[nH]1` (racemic) [compound 267], the “% Activity” value is −5% and 0%.

The same test, now with this note: L929 antagonist testing with R1881.
Consider `CC[S+]([O-])CC(C)(O)c1[nH]c2cc(C(F)(F)F)c(C#N)cc2c1C` (centres unmarked) [compound 252], for which the IC50 is 3.1 µM.

A further test concerns the target T1, androgen receptor. Put plainly: Androgen Receptor Binding Using Rat Ventral Prostate Cytosol. As to conditions: Rat Cytosol; Concentration 1000 nM. Details: from tissue; host or cells: ventral prostate cytosol of castrated male Sprague Dawley or Wistar rats. As for the experimental part: Rat Prostate Cytosol Preparation:
Male Sprague Dawley or Wistar rats (Charles River, 200-300 g) were used for each preparation. The day before preparing the cytosol, the rats were castrated using standard surgical procedures.
The rats were euthanized by carbon dioxide asphyxiation. The rat prostates were quickly removed and placed on ice in pre-chilled, pre-weighed 50 mL plastic tubes. No more than five prostates were placed into one tube. The tubes were then weighed and the prostate tissue wet weights calculated.
To the chilled prostate tissue was then added […] of chilled homogenization buffer. The homogenization buffer was freshly prepared by mixing 10 mM Tris.HCl, pH 7.4, 1 mM sodium molybdate, 1.5 mM EDTA, 1 mM dithiothreitol, 10% (v/v) glycerol and 1% protease inhibitor cocktail (Sigma P 8340).
The prostate tissue was homogenized in a cold room using a pre-chilled Polytron PT3000 homogenizer (Brinkmann). Homogenization was performed at a speed setting of 20, three times for 10 sec bursts. The tubes containing the prostate tissue was kept on ice while homogenizing. The homogenate was allowed to rest on ice for 20 sec between bursts.
The homogenate was then placed into pre-chilled 3 mL polycarbonate ultracentrifuge tubes and centrifuged in the TLA-100 rotor of a TL-100 ultracentrifuge for 12 min at 100,000 rpm at 4° C. The resulting supernatant was stored in 1 mL aliquots at −80° C. until needed.
Binding to the androgen receptor was determined according to the protocol described in Example 86 using the above prepared rat cytosol.
% Inhibition was determined by testing dilutions of the test compound (usually duplicates of 10 μM) in the binding assay. Counts per well were measured and percents of inhibition determined. […] Counts per well were measured and IC50s determined by linear regression.
Regarding `CC(O)(Sc1ccc(Cl)c(Cl)c1)c1cc2cc([N+](=O)[O-])c(C(F)(F)F)cc2[nH]1` (racemic) [compound 254], the “% Inhibition” value is listed as 41%.

Consider `CC(O)(c1cc2cc([N+](=O)[O-])c(C(F)(F)F)cc2[nH]1)S(=O)(=O)c1ccc(Cl)c(Cl)c1` (racemic) [compound 255], for which the “% Inhibition” value amounted to 26%.

As for `CC(O)(Sc1ccccc1)c1cc2cc([N+](=O)[O-])c(C(F)(F)F)cc2[nH]1` (racemic) [compound 258], the “% Inhibition” value amounted to 35.4%. Same read-out and setting: the value for `CC(O)(Sc1ccc(Cl)cc1)c1cc2cc(C#N)c(C(F)(F)F)cc2[nH]1` (racemic) [compound 261] was 14.05%; that for `CC(O)(c1cc2cc(C#N)c(C(F)(F)F)cc2[nH]1)S(=O)(=O)c1ccc(Cl)cc1` (racemic) [compound 262] was −8.4%; that for `CS(=O)(=O)n1c(C2(O)CCN(C(=O)c3ccc(Cl)cc3)CC2)cc2cc(Cl)c(C(F)(F)F)cc21` [compound 24] was 2%.

Still in this test, the particulars now being: Rat Cytosol; Concentration 3000 nM.
Take `CN(C)c1ccc(S(=O)(=O)CC(C)(O)c2cc3cc(Cl)c(C(F)(F)F)cc3[nH]2)cc1` (racemic) [compound 126]: the “% Inhibition” value is −30%.

In the case of `CC(O)(CS(=O)(=O)Cc1ccccc1)c1cc2cc([N+](=O)[O-])c(C(F)(F)F)cc2[nH]1` (racemic) [compound 162], the “% Inhibition” value was found to be 0.69%. The same measure, in the same setting: then `CC(O)(Sc1ccc(N)cc1)c1cc2cc(Cl)c(C(F)(F)F)cc2[nH]1` (racemic) [compound 265], with 93.5%. For `CC(O)(Sc1ccc(N)cc1)c1cc2cc([N+](=O)[O-])c(C(F)(F)F)cc2[nH]1` (racemic) [compound 266], the “% Inhibition” value stood at 12.4%. Consider `CC(C)SC(C)(CO)c1cc2cc([N+](=O)[O-])c(C(F)(F)F)cc2[nH]1` (racemic) [compound 268], for which the “% Inhibition” value is given as −3.3%.

What is called IC50 is the concentration needed to halve the response being measured. A higher IC50 goes with lower potency. In general, % Inhibition refers to the relative decrease from the control value, in per cent.
